According to patent publication US8703786B2, “Etravirine formulations and uses thereof” (priority 2011, dated 2014):
In brackets after ≈: the same amount, converted by molar mass. Where two headings read alike, the source gives them in different places.

Key:
[1] = cited from earlier work
plasma proteins = conditions: cited from earlier work
p-gp = p-gp (Homo sapiens, UniProt P08183); conditions: in vitro; read-out: apparent IC50 (inhibitor of p-gp); cited from earlier work
[2] = Solubility of etravirine in various media by phase solubility analysis (HPLC-UV); type: physicochemical; conditions: for solubility at 72 h: thermodynamic from solid
Description: The solubility of etravirine was determined in water, various oils and some organic solvents by phase solubility analysis. Excess drug was added into 20 ml screw-capped scintillation vials containing 5 ml of the tested solvents. The vials were rotated end-over-end at a constant speed on shaker (EBERBACH Corporation, Ann Arbor, Mich.) at room temperature for 3 days (72 hours). The samples were then subjected to centrifugation on a laboratory centrifuge at 13,000 rpm for 15 minutes. Aliquot of the supernatant was diluted with DMSO to the proper concentration before they were analyzed by high-performance liquid chromatography (HPLC) using UV detector.
The HPLC system involved Waters 600 pump, 2487 UV detector and 717 plus auto sampler (Waters Corporation, Milford, Mass.). Separations were done on a 4.6×150 mm, 3.5 μm XTerra MS-C18 column (Waters Corporation, Milford, Mass.). The flow rate was set at 1 ml/min and the wavelength at 304 nm. Chromatographic data acquisition, peak integration and quantification were performed using the Empower software package by Waters Corporation. Mobile phase solution A consisted of 20 mM potassium dihydrogen phosphate aqueous solution and solution B consisted of acetonitrile (40% solution A+60% solution B). pH was adjusted to 3.2 using phosphoric acid. Solvents were regularly prepared prior to each series of analysis.

[3] = Pharmacokinetic / oral bioavailability study in rats (LC-MS/MS of plasma); type: in vivo; conditions: male, Sprague-Dawley, rat
Description: Male Sprague-Dawley rats (250-350 g, Harlan Laboratory Inc., Indianapolis, Ind.) were housed in stainless steel cages and had free access to food and water. They were acclimated to the animal care facility for at least 7 days before the start of the study. To facilitate the withdrawal of timed, multiple blood samples from each animal, the right jugular vein of each animal was cannulated one day prior to drug administration. The cannulas were flushed daily with 0.5 mL sterile heparinized saline (100 units/ml). Under ketamine:acetopromazine:xylazine (50:3.3:3.3 mg/kg ip) anesthesia, silicone elastomer tubing (0.02×0.037 in) was inserted into the jugular vein, secured with a silk suture, and exteriorized in the dorsal infrascapular area. The surgical incision was prophylactically treated with nitrofurazone wound powder and closed with surgical staples.
Animals were allowed free access to food and water at all times. The jugular veins of the rats were cannulated under anesthesia the day before the study. All in vivo studies were initiated between 8:00 am and 9:00 am to eliminate possible circadian variation. The animals were fasted overnight with water allowed ad libitum before oral dosing.
The in vivo study consists of four rat groups. […] The second group is a reference group (n=5) which was given an oral 200 mg/kg administration of a suspension of the commercial Intelence® tablets in 1% Tween 80. […] Oral administration was performed using an animal feeding needle (18 in.×3 in. W; 2¼ mm Ball). Multiple blood samples (0.25 mL) were collected (from the jugular vein cannula) immediately before dosing and at 0.5, 1, 1.5, 2, 3, 4, 5, 6, 8, 10 and 24 hours after dosing. An aliquot of each plasma sample was stored at −70° C. pending LC-MS/MS assay.
Etravirine concentrations in rat plasma was analyzed using a sensitive and accurate liquid chromatographic-tandem mass spectrometry (LC-MS/MS) method developed in the laboratory (10). […] The column effluent was monitored using a 3200 QTRAP® mass spectrum, which is a hybrid triple quadruple linear ion trap equipped with a Turbolonspray ion source. […]

[4] = cited from earlier work; for Biopharmaceutics Classification System class: low water solubility and permeability

p-gp, sequence (P08183 whole entry): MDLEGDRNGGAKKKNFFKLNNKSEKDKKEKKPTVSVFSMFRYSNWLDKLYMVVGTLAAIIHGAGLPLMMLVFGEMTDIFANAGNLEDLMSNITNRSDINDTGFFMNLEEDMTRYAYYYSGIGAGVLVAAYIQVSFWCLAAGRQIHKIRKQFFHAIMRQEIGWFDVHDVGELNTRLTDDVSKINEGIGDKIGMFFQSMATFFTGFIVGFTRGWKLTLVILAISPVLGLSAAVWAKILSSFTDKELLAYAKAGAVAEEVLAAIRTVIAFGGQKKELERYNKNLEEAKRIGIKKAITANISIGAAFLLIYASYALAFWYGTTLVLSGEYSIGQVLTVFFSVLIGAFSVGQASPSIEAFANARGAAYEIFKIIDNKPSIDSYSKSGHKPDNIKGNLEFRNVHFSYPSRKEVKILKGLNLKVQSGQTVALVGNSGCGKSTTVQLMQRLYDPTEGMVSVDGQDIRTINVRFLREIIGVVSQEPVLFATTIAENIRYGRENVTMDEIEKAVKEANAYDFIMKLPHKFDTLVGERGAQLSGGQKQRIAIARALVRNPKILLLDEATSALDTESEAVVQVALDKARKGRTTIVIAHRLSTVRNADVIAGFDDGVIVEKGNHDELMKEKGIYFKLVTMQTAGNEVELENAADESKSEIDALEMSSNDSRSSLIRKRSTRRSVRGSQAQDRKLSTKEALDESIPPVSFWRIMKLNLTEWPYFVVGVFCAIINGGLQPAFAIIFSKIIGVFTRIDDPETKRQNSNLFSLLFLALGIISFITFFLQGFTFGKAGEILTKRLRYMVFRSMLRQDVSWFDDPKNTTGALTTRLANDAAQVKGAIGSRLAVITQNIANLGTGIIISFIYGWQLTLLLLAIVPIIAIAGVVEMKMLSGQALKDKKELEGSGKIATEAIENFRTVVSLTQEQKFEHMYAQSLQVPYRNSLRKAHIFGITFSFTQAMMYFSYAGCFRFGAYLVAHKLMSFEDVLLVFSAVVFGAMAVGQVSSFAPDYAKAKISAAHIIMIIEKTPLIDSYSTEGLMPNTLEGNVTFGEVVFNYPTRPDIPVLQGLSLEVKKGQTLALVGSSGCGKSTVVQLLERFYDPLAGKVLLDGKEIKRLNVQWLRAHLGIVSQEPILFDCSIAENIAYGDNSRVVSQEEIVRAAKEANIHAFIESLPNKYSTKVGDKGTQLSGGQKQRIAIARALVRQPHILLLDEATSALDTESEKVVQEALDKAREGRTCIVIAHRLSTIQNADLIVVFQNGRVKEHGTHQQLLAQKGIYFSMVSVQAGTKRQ

**Q.** Which “time of median peak concentration” value ([1]; fasted oral administration) does the source give for Cc1cc(C#N)cc(C)c1Oc1nc(Nc2ccc(C#N)cc2)nc(N)c1Br [Etravirine, 4-[[6-amino-5-bromo-2-[(4-cyanophenyl)amino]-4-pyrimidinyl]oxy]-3,5-dimethyl benzonitrile] here?
**A.** approximately 4.0 hours

**Q.** And the “terminal elimination half-life in plasma” value ([1]; in vivo)?
**A.** 30 to 40 h

**Q.** And the “binding to plasma proteins” value (plasma proteins)?
**A.** highly bound

**Q.** What about the IC50 (p-gp) of the same compound?
**A.** 24.2 µM

**Q.** What about the solubility at 72 h ([2]; distilled water, water, read-out: intrinsic solubility) of the same compound?
**A.** 3.9 µg/mL (≈ 0.00896 mM)

**Q.** And the “solubility (descriptive)” value ([2]; in DMSO and 1-methyl-2-pyrrolidinone)?
**A.** freely soluble

**Q.** And the “solubility (descriptive)” value ([2]; in PEG 400, Tween 80, Cremophore EL, Tween 20, and Labrasol)?
**A.** soluble

**Q.** And the “solubility (descriptive)” value ([2]; in corn oil, soybean oil and olive oil)?
**A.** very slightly soluble

**Q.** What about the “solubility (descriptive)” value ([2]; in peanut oil, Caproyl 90) of the same compound?
**A.** slightly soluble

**Q.** What about the “solubility (descriptive)” value ([2]; in water) of the same compound?
**A.** practically insoluble

**Q.** What about the solubility at 72 h ([2]; oil or lipid, Caproyl 90, room temperature, read-out: Drug Solubility) of the same compound?
**A.** 5420 ± 60 µg/mL (≈ 12.5 mM)

**Q.** And the solubility at 72 h ([2]; oil or lipid, Coriander Oil, room temperature, read-out: Drug Solubility)?
**A.** 740 µg/mL (≈ 1.7 mM)

**Q.** What about the solubility at 72 h ([2]; oil or lipid, Corn Oil, room temperature, read-out: Drug Solubility) of the same compound?
**A.** 420 µg/mL (≈ 0.965 mM)

**Q.** What about the solubility at 72 h ([2]; oil or lipid, Labrafac CC, room temperature, read-out: Drug Solubility) of the same compound?
**A.** 1040 ± 10 µg/mL (≈ 2.39 mM)

**Q.** What about the solubility at 72 h ([2]; oil or lipid, Lavender Oil, room temperature, read-out: Drug Solubility) of the same compound?
**A.** 1230 µg/mL (≈ 2.83 mM)

**Q.** What about the solubility at 72 h ([2]; oil or lipid, Linseed Oil, room temperature, read-out: Drug Solubility) of the same compound?
**A.** 790 µg/mL (≈ 1.81 mM)

**Q.** And the solubility at 72 h ([2]; oil or lipid, Mineral Oil, room temperature, read-out: Drug Solubility)?
**A.** 4 µg/mL (≈ 0.00919 mM)

**Q.** And the solubility at 72 h ([2]; oil or lipid, Olive Oil, room temperature, read-out: Drug Solubility)?
**A.** 220 µg/mL (≈ 0.505 mM)

**Q.** What about the solubility at 72 h ([2]; oil or lipid, Paraffin Oil, room temperature, read-out: Drug Solubility) of the same compound?
**A.** 9 µg/mL (≈ 0.0207 mM)

**Q.** What about the solubility at 72 h ([2]; oil or lipid, Peanut Oil, room temperature, read-out: Drug Solubility) of the same compound?
**A.** 2190 µg/mL (≈ 5.03 mM)

**Q.** What about the solubility at 72 h ([2]; oil or lipid, Pluro oleique CC 497, room temperature, read-out: Drug Solubility) of the same compound?
**A.** 1040 ± 20 µg/mL (≈ 2.39 mM)

**Q.** And the solubility at 72 h ([2]; oil or lipid, Soybean Oil, room temperature, read-out: Drug Solubility)?
**A.** 310 µg/mL (≈ 0.712 mM)

**Q.** What about the solubility at 72 h ([2]; organic solvent or mixture, 1-methyl-2-pyrrolidinone, room temperature, read-out: Drug Solubility) of the same compound?
**A.** 458000 µg/mL (≈ 1050 mM)

**Q.** What about the solubility at 72 h ([2]; organic solvent or mixture, Cremophore EL, room temperature, read-out: Drug Solubility) of the same compound?
**A.** 46000 ± 690 µg/mL (≈ 106 mM)

**Q.** What about the solubility at 72 h ([2]; organic solvent or mixture, Labrasole, room temperature, read-out: Drug Solubility) of the same compound?
**A.** 61000 µg/mL (≈ 140 mM)

**Q.** And the solubility at 72 h ([2]; organic solvent or mixture, PEG 400, room temperature, read-out: Drug Solubility)?
**A.** 71600 µg/mL (≈ 164 mM)

**Q.** And the solubility at 72 h ([2]; organic solvent or mixture, Tween 20, room temperature, read-out: Drug Solubility)?
**A.** 55800 ± 870 µg/mL (≈ 128 mM)

**Q.** What about the solubility at 72 h ([2]; organic solvent or mixture, Tween 80, room temperature, read-out: Drug Solubility) of the same compound?
**A.** 49700 ± 410 µg/mL (≈ 114 mM)

**Q.** What about the solubility at 72 h ([2]; Water, room temperature, read-out: Drug Solubility) of the same compound?
**A.** 3.97 µg/mL (≈ 0.00912 mM)

**Q.** And the AUC ([3]; IV 2.5 mg/kg)?
**A.** 1660 ± 498 ng·h/mL

**Q.** What about the Cmax ([3]; IV 2.5 mg/kg (solution in DMSO)) of the same compound?
**A.** 2360 ± 1120 ng/mL

**Q.** And the half-life ([3]; IV 2.5 mg/kg, read-out: T1/2 (terminal biological half-life) (converted))?
**A.** 1.14 ± 0.91 h

**Q.** And the “solubility in PEG 400 reported in the scientific literature” value ([4]; PEG 400)?
**A.** 74000 µg/mL (≈ 170 mM)

**Q.** What about the “ionization constant (pka)” value [4] of the same compound?
**A.** 3.75

**Q.** What about the “octanol:water partition coefficient (logP)” value [4] of the same compound?
**A.** greater than 5

**Q.** And the “Biopharmaceutics Classification System class” value [4]?
**A.** class IV

**Q.** And the “Biopharmaceutics Classification System class” value ([4]; listed as etravirine)?
**A.** class IV
